This note sets out measurements from patent US20230391881A1, “COMPOSITIONS AND METHODS FOR OVERCOMING DR5-INDUCED IMMUNE EVASION BY SOLID TUMORS” (University of Virginia Patent Foundation, priority 2020, published 2023).

*1 amine or outer side, *2 acyl side, *3 side chain or, on linkers, in order; H or OH if unused. Where a SMILES comes first, the peptide text is derived from it. Bridges are numbered along the chain shown (N, C = ends). Roman numbers before positions name the chains, in order. [ ]: non-standard residue; d: D form. The star is where a group is joined. Actinocin(9to1) = Cc1c2oc3c(C)ccc(C(=O)[*:1])c3nc-2c(C(=O)[*:2])c(N)c1=O; NMeV = CN[C@H](C(=O)O)C(C)C; Cbz = O=C(OCc1ccccc1)*; Sar = CNCC(=O)O

One experiment concerns PD-L1. Nature of the experiment: Western blotting / flow cytometry of PD-L1 and regulators in tumor cells. It counts as cell-based, human. To be noted: for reversal of PD-L1 stability generated by DR5 agonists: MDA-MB-436 cells pretreated 0-8 hours with inhibitor, then DR5 agonist 6 hours. Here is the method: Western Blotting. Cells were cultured overnight in tissue culture-treated 6-well plates prior to treatment. After antibody treatment for 48 hours or another indicated time, cells were rinsed with PBS and then lysed with RIPA buffer supplemented with protease inhibitor cocktail (ThermoFisher Scientific). Centrifugation at 14000 rpm for 30 minutes cleared lysates and protein was quantified by PIERCE™ BCA Protein Assay Kit (ThermoFisher Scientific). Western blotting was performed using the Bio-Rad SDS-PAGE Gel system. Briefly, 30 μg of protein was resolved on 10% Bis-Tris gels and then transferred onto PVDF membrane. Membranes were blocked for one hour at room temperature in TBS+0.1% Tween (TBST) with 5% non-fat dry milk. Membranes were probed overnight at 4° C. with primary antibodies. Membranes were washed three times in TBST and then incubated with anti-rabbit or anti-mouse secondary antibodies (1/10,000 dilution, coupled to peroxidase) for 1 hour at room temperature. Membranes were then washed three times with TBST and immunocomplexes were detected with SUPERSIGNAL™ West Pico Chemiluminescent Substrate (ThermoFisher Scientific). Images were taken using a Bio-Rad Gel Doc Imager system.
(§1) Flow cytometry. The cell surface expression of PD-L1, CD47, huDR5, muDR5, CD8, CD4, CD25 etc. was analyzed by flow cytometry. Overnight grown tumors were trypsinized and suspended in FACS buffer (PBS containing 2% FBS). Single cell suspensions were then incubated with primary DR4/DR5 antibodies for 1 hour at 4° C. with gentle mixing. Following wash with FACS buffer, the cells were then incubated with fluorescently labeled anti-Rabbit antibody for 1 hour. Cells were washed and flow cytometry was performed using a BD FACSCALIBUR™ flow cytometer. The data was analyzed by FCS Express (De Novo Software, Los Angeles, California, United States of America) and FlowJo.
On the technique in general: A western blot detects proteins with antibodies after separation by electrophoresis.

The subject of another experiment is 4T1 tumors. Nature of the experiment: Tumor regression in 4T1 syngeneic TNBC tumor models. It is filed as in vivo, mouse. The note with it: BALB/c mice, 4T1 tumors; MD5-1 50 μg i.p., GSK269962 2 mg/kg into the tumors (FIG. 4K). Here is the method:
FIGS. 4A-4K. DR5 agonist activated ROCK1 functions to help PD-L1 surface mobilization. (FIGS. 4A and 4B) KMTR2 and lexatumumab treated MDA-MB-436 and OVCAR3 (respectively) lysates for indicated early time points were analyzed for caspase-8, caspase-3, ROCK1, pMLC, PARP, PD-L1 and CMTM6 etc. as indicated. Vertical arrows indicate sequential kinetics of caspase-8, ROCK1, and caspase-3 activation, arrows with “n.s.” below them indicate nonspecific band by ROCK1 antibody. (FIG. 4C) OVCAR3 cells were treated with pMLC activating ionophore A23187 (positive control) and lexatumumab ±ROCK1 inhibitors or ±rDR5 or ±rFOLR1. Lysates were later analyzed for ROCK1, pMLC, caspase-3 and PARP with GAPDH as loading control. (FIG. 4D) MDA-MB-436 and OVCAR3 cells were treated with indicated ROCK1 inhibitors 2 hours prior to DR5 agonist KMTR2 treatment. After 4 hours flow cytometry was used to analyze surface PD-L1. […] Relative luciferase signal was quantified and plotted after subtraction of background signal from untreated cells. […] Tumor volumes were quantified at indicated days by caliper measurements. […] Statistical significance in FIG. 4J was determined by unpaired student t-test and in FIG. 4K using two-tailed […] Wilcoxon Mann-Whitney test. […]
FIGS. 6A-6M. […] CD8/CD45 and CD4/CD45 expressing cells were measured by flow cytometry. […] Harvested tumors homogenized followed by quantitation. […]

The next experiment concerns PD-L1-PD-1 interaction. The experiment is described as follows: PD-1/PD-L1 tumor cell-Jurkat cell co-culture luciferase reporter assay. It counts as cell-based, human. To be noted: tumor cells pretreated with ROCK1 inhibitor then DR5 agonist. Here is the method: PD-1/PD-L1 reporter assay. […] The original kit contains PD-1 effector Jurkat T cells stably express human PD-1 and NFAT-induced luciferase, while PD-L1 aAPC/CHO-K1 cells stably express human PD-L1 and a cell surface protein designed to activate cognate TCRs in an antigen-independent manner. […] Antibodies blocking PD-1-PD-L1 interaction removes inhibitory signals, resulting in luciferase activation. […] Next day, medium was removed from the culture plate and cells were treated with diluted DR5 agonist antibodies. […] Glo response NFAT-luc2/PD1 Jurkat cells (Promega) were re-suspended in assay buffer and incubated with 1 μg/ml anti-CD3 for 2 hours to activate PD1 Jurkat cells. […] After 6 hours of co-culture, assay plates were removed from the incubator; content of each well were mixed thoroughly with the help of multi-channel pipette and then transferred to a white opaque assay plate. 10 mg/ml luciferase reagent was prepared and loaded into the plate reader, which injects 50 μl reagent in each well and measures luminescence immediately. Data was analyzed using Microsoft Excel software. Wherever indicated, inhibitors (ERK, STAT3, Caspase, ROCK1 etc.) were added 2-3 hrs prior to DR5 agonist antibodies in 96 well culture of tumors as described herein.
In general terms: In a reporter assay the amount or activity of a reporter protein is the signal.

The next experiment deals with MDA-MB-436 cells. The experiment is described as follows: Flow cytometry of surface PD-L1 on tumor cells treated with DR5 agonist antibodies (FIG. 20B). It counts as cell-based, human. Here is the method:
FIGS. 20A-20C. (FIG. 20A) 3 biological replicates of total PD-L1 and GAPDH from triple negative breast cancer cell (MDAMB-436) and ovarian cell (OVCAR-3) lysates treated with lexatumumab for 6 hours. (FIG. 20B) Raw mean fluorescent intensity (MFI) and % positive PD-L1 counts from the cells treated with indicated DR5 agonist antibodies. MFI values are shown on the top of solid color bars. There are multiple instances (shown on the top) where despite having lower % positive PD-L1 population, MFI values were higher after indicated DR5 agonist treatments. As an example, in MDA-MB-436 cells treated with tigatuzumab and lexatumumab, lexatumumab treated cells had higher % positive PD-L1 population (9.32 vs 11.97), however MFI was higher in tigatuzumab treated population (107.54 vs 45.87). (FIG. 20C) KMTR2 treated (50 μg, 4 doses) UCD52 TNBC PDX tumors were stained for PD-L1 using immunohistochemistry (IHC). 3 additional representative images are shown. Also see FIG. 1L.
as §1
PD-L1 surface expression analysis of tumor derived cells. The cell surface expression of PD-L1 from tumor-derived cell was analyzed by flow cytometry. Isolated cells were suspended in FACS buffer (PBS containing 1% FBS). The single cell suspension was then incubated with primary PD-L1 antibodies (1:400 dilution) for 1 hour at 4° C. with gentle mixing. […] Following 3 times wash with FACS buffer, the cells were then incubated with fluorescently labeled (alexa 488) anti-Rabbit secondary antibody for 1 hour. Cells were then washed 3-4 times with FACS buffer and flow cytometry was performed using BD FACSCALIBUR™. The data was analyzed by FCS Express (De Novo Software) and FlowJo software.
Background: Flow cytometry measures light scatter and fluorescence of single cells or particles in a stream.

As to `C[C@@H]1C[C@@H]([C@H](O)CC2CC(=O)NC(=O)C2)C(=O)[C@@H](C)C1` [Cycloheximide], the “reversal of PD-L1 stability generated by DR5 agonists” value in the experiment on PD-L1 was “did not also reversed PD-L1 stability”.

For the molecule `CCn1c(-c2nonc2N)nc2cnc(Oc3cccc(NC(=O)c4ccc(OCCN5CCOCC5)cc4)c3)cc21` [GSK269962, N-(3-{[2-(4-Amino-1,2,5-oxadiazol-3-yl)-1-ethyl-1H-imidazo[4,5-c]pyridin-6-yl]oxy}phenyl)-4-[2-(morpholin-4-yl)ethoxy]benzamide], in the experiment with 4T1 tumors, the “Tumor regression efficacy (tumor volume)” value was “ineffective”. For the same molecule, the “luciferase activity in co-culture reporter assay in presence of ROCK1 inhibitors” value with PD-L1-PD-1 interaction is reported as “Increased average luciferase intensity”.

Take `CC1=C(C(=O)Nc2cc3cn[nH]c3cc2F)C(c2ccc(C(F)(F)F)cc2)CC(=O)N1` (centres unmarked) [GSK429286, N-(6-Fluoro-1H-indazol-5-yl)-6-methyl-2-oxo-4-[4-(trifluoromethyl)phenyl]-3,4-dihydro-1H-pyridine-5-carboxamide]: the “luciferase activity in co-culture reporter assay in presence of ROCK1 inhibitors” value in the experiment on PD-L1-PD-1 interaction is listed as “Increased average luciferase intensity”.

For the molecule `CC(C)C[C@@H](C=O)NC(=O)[C@H](CC(C)C)NC(=O)[C@H](CC(C)C)NC(=O)OCc1ccccc1` [MG132] (Cbz-Leu-Leu-Leu-aldehyde), the “PD-L1 stability with proteasome inhibition (MG132)” value in the experiment on PD-L1 (cell surface or total lysates) was “increased overall PD-L1”.

Consider `Cc1c2oc3c(C)ccc(C(=O)N[C@@H]4C(=O)N[C@H](C(C)C)C(=O)N5CCC[C@H]5C(=O)N(C)CC(=O)N(C)[C@@H](C(C)C)C(=O)O[C@@H]4C)c3nc-2c(C(=O)N[C@@H]2C(=O)N[C@H](C(C)C)C(=O)N3CCC[C@H]3C(=O)N(C)CC(=O)N(C)[C@@H](C(C)C)C(=O)O[C@@H]2C)c(N)c1=O` [actinomysin-D] (I: T[dV]P[Sar][NMeV] / II: T[dV]P[Sar][NMeV]; ester I:1-I:C, II:1-II:C; linker I:N-II:N via Actinocin(9to1)), for which the “reversal of PD-L1 stability generated by DR5 agonists” value with PD-L1 is recorded as “did not also reversed PD-L1 stability”.

With “tigatuzumab: Monospecific Antibody, Human DR5 activator; VL and VH SEQ ID NOs: 3 and 4”, the “PD-L1 mean fluorescent intensity (MFI)” value in the experiment on MDA-MB-436 cells (MDA-MB-436 cells treated with DR5 agonist antibody (FIG. 20B)) was 107.54. Moreover, in the experiment on MDA-MB-436 cells (MDA-MB-436 cells treated with DR5 agonist antibody, raw flow cytometry counts (FIG. 20B)), the “% positive PD-L1 population” value is listed as 9.32%.
